{
  "source": "patent US9855270B2",
  "about": "“Methods and compositions for modulating estrogen receptor mutants” (priority 2014, dated 2018)",
  "tested_on": "mutant ERα",
  "conditions": "24 hr; estrogen-depleted medium containing 100 ng/ml Dox; absence of E2",
  "data": [
    {"smiles": "CC/C(=C(\\c1ccccc1)c1ccc(OCCN(C)C)cc1)c1ccccc1", "note": "[tamoxifen]", "values": [
      {"measurement": "mutant ERα degradation", "result": "not"}
    ]}
  ]
}
